In paper PMC5864050 (PLoS ONE, 2018):
Counter-ions that a name gives are not always drawn. Like-named read-outs stand apart in the source and are kept apart here.

Assays:
MERS-CoV [1] = experiment: microbe, parasite or virus in culture; type: cell-based, MERS-CoV Jordan strain (Hu/Jordan-N3/2012); conditions: for EC50: Middle East respiratory syndrome-related coronavirus
MERS-CoV [2] = type: cell-based, MERS-CoV Jordan strain (Hu/Jordan-N3/2012)
MERS-CoV [3] = type: cell-based, MERS-CoV Jordan strain (Hu/Jordan-N3/2012); remark: listed apart in the source
MERS-CoV [4] = type: cell-based, MERS-CoV Jordan strain (Hu/Jordan-N3/2012); remark: listed apart in the source
MERS-CoV [5] = conditions: cited from earlier work
MERS-CoV [6] = conditions: read-out: EC50, MERS-CoV infection; cited from earlier work
in vitro = conditions: human
Vero E6 cells = conditions: cited from earlier work
Huh 7 cells = conditions: cited from earlier work
MERS-CoV and SARS-CoV = conditions: cited from earlier work
SARS-CoV = conditions: cited from earlier work

Row | SMILES | selectivity index (SI = CC50÷EC50) (MERS-CoV [1]) | EC50 (MERS-CoV [1]; read-out: EC50, antiviral activity against MERS-CoV) | virus yield reduction (TCID50) (MERS-CoV [2]) | virus yield reduction (TCID50) (MERS-CoV [3]) | activity against MERS-CoV infection by virus yield reduction (in words) (MERS-CoV [4]) | virus yield reduction (TCID50), drop (MERS-CoV [4]) | cytotoxicity (in words) (immature MDDCs) | EC50 (MERS-CoV [5]) | EC50 (MERS-CoV [6]) | CC50 (in vitro) | cytotoxicity (in words) (Vero E6 cells) | CC50 (Huh 7 cells) | toxicity (in words) (MERS-CoV and SARS-CoV) | EC50, antiviral activity against MERS-CoV (MERS-CoV [1]) | EC50 (MERS-CoV [1]) | EC50 (SARS-CoV)
1 | CN(C)CCCN1c2ccccc2Sc2ccc(Cl)cc21 [CPZ, Chlorpromazine hydrochloride] | 1.9 | 13.6 µM | ~2 log10 | ~2 log10 | active | 3.1 log10 | high cytotoxicity | 9.5 µM | 4.9 µM | 25.6 µM | low cytotoxicity | 21.3 µM | – | – | – | –
2 | CCN(CC)CCCC(C)Nc1ccnc2cc(Cl)ccc12 (stereo not drawn) [CQ, chloroquine diphosphate salt] | – | – | no virus yield reduction | no virus yield reduction | not active | – | – | 6.3 µM | – | – | – | – | low toxicity | – | – | –
3 | CN(C)CCOc1ccc(/C(=C(/CCCl)c2ccccc2)c2ccccc2)cc1 [TOMF, Toremifene citrate] | – | – | 1–1.5 log10 | 1–1.5 log10 | not active | – | – | – | – | 22.5 µM | – | – | – | too low to determine an EC50 | 38 µM | 12 µM
